Measured values: patent publication US11026943B2, “Aminoquinoline derivatives and uses thereof” (UNIVERSITY OF DELHI, priority 2012, dated 2021)
Like-named read-outs stand apart in the source and are kept apart here.

What was measured:
[1] = tested on: CQ-resistant (W2 clone) strain of P. falciparum; test: In vitro antimalarial activity, CQ-resistant strain; assay type: cell-based, Plasmodium falciparum; details: for IC50: Plasmodium falciparum; for P. falciparum (W2 Clone) S.I.: selectivity index = IC50 cytotoxicity to Vero cells / IC50 antimalarial
From the text: (§1) Med. Chem. 2005, 13, 4458; Khan, I. A. Lipids 2004, 37, 169].

LLC-PK-1 cells = test: In vitro cytotoxicity to mammalian cells, LLC-PK-1; assay type: cell-based; details: Sus scrofa, LLC-PK1
From the text: as §1

[2] = tested on: CQ-sensitive (D6 clone) strain of P. falciparum; test: In vitro antimalarial activity, CQ-sensitive strain; assay type: cell-based, Plasmodium falciparum; details: for IC50: Plasmodium falciparum; for P. falciparum (D6 Clone) S.I.: selectivity index = IC50 cytotoxicity to Vero cells / IC50 antimalarial
From the text: as §1

HepG2 cells = test: In vitro cytotoxicity to mammalian cells, HepG2; assay type: cell-based; details: Homo sapiens
From the text: as §1

VERO cells = test: In vitro cytotoxicity to mammalian cells, VERO; assay type: cell-based; details: Chlorocebus sabaeus, Vero; in vitro cytotoxicity to mammalian cells
From the text: as §1

parasitemia = test: In-vivo antimalarial activity in mice; details: for parasitemia suppression / % Parasitemia suppression Day 5: day 5; for Cure (number of mice without parasitemia till day 28 post-infection) / MST (mean survival time) / Remarks (toxicity) / % Parasitemia suppression Day 5 / % Parasitemia suppression Day 7 / Survival (animals that survived day 28/total animals in group) / Day of Death: PO; for Day of Death: per animal
[3] = Solubility (solvent listed in compound tables); assay type: physicochemical; details: solvent named, Table 3
[4] = CQ-resistant W2 clone, read-out: P. falciparum (W2 Clone) IC50
[5] = CQ-sensitive D6 clone, read-out: P. falciparum (D6 Clone) IC50
[6] = mice, 3.3 mg/kg × 3 days post-infection
[7] = mice, 10 mg/kg × 3 days post-infection
[8] = mice, 30 mg/kg × 3 days post-infection
[9] = mice, 100 mg/kg × 3 days post-infection

## Cc1cc(NCCNc2ccnc3cc(Cl)ccc23)nc(Cl)n1 [10a]
[1]; [4]
  IC50: 0.34 µM
[1]
  P. falciparum (W2 Clone) S.I.: (>176)
LLC-PK-1 cells
  IC50: > 60 µM
[2]; [5]
  IC50: 0.21 µM
[2]
  P. falciparum (D6 Clone) S.I.: (>285)
HepG2 cells
  IC50: > 60 µM
VERO cells
  IC50: > 60 µM

## Cc1cc(NCCCNc2ccnc3cc(Cl)ccc23)nc(Cl)n1 [10b]
[1]; [4]
  IC50: 0.74 µM
[1]
  P. falciparum (W2 Clone) S.I.: (>80)
LLC-PK-1 cells
  IC50: > 60 µM
[2]; [5]
  IC50: 0.35 µM
[2]
  P. falciparum (D6 Clone) S.I.: (>170)
HepG2 cells
  IC50: > 60 µM
VERO cells
  IC50: > 60 µM

## Cc1cc(NCCCCNc2ccnc3cc(Cl)ccc23)nc(Cl)n1 [10c]
[1]; [4]
  IC50: 0.69 µM
[1]
  P. falciparum (W2 Clone) S.I.: (>87)
LLC-PK-1 cells
  IC50: > 60 µM
[2]; [5]
  IC50: 0.151 µM
[2]
  P. falciparum (D6 Clone) S.I.: (>398)
HepG2 cells
  IC50: > 60 µM
VERO cells
  IC50: > 60 µM

## Cc1cc(NCCCCCCNc2ccnc3cc(Cl)ccc23)nc(Cl)n1 [10d]
[1]; [4]
  IC50: 0.544 µM
[1]
  P. falciparum (W2 Clone) S.I.: 27.2
LLC-PK-1 cells
  IC50: 14.8 µM
[2]; [5]
  IC50: 0.469 µM
[2]
  P. falciparum (D6 Clone) S.I.: 73.7
HepG2 cells
  IC50: 9.3 µM
VERO cells
  IC50: 34.6 µM

## Cc1cc(Cl)nc(NCCNc2ccnc3cc(Cl)ccc23)n1 [11a]
[1]; [4]
  IC50: 0.91 µM
[1]
  P. falciparum (W2 Clone) S.I.: 47.2
LLC-PK-1 cells
  IC50: 41.6 µM
[2]; [5]
  IC50: 0.27 µM
[2]
  P. falciparum (D6 Clone) S.I.: 159.2
HepG2 cells
  IC50: 43 µM
VERO cells
  IC50: 43 µM

## Cc1cc(Cl)nc(NCCCNc2ccnc3cc(Cl)ccc23)n1 [11b]
[1]; [4]
  IC50: 1.24 µM
[1]
  P. falciparum (W2 Clone) S.I.: (>48)
LLC-PK-1 cells
  IC50: > 60 µM
[2]; [5]
  IC50: 0.27 µM
[2]
  P. falciparum (D6 Clone) S.I.: (>222)
HepG2 cells
  IC50: > 60 µM
VERO cells
  IC50: > 60 µM

## Cc1cc(Cl)nc(NCCCCNc2ccnc3cc(Cl)ccc23)n1 [11c]
[1]; [4]
  IC50: 0.664 µM
[1]
  P. falciparum (W2 Clone) S.I.: (>90)
LLC-PK-1 cells
  IC50: > 60 µM
[2]; [5]
  IC50: 0.196 µM
[2]
  P. falciparum (D6 Clone) S.I.: (>306)
HepG2 cells
  IC50: 39.8 µM
VERO cells
  IC50: > 60 µM

## Cc1cc(Cl)nc(NCCCCCCNc2ccnc3cc(Cl)ccc23)n1 [11d]
[1]; [4]
  IC50: 0.568 µM
[1]
  P. falciparum (W2 Clone) S.I.: 97.8
LLC-PK-1 cells
  IC50: 23.4 µM
[2]; [5]
  IC50: 0.165 µM
[2]
  P. falciparum (D6 Clone) S.I.: 336.9
HepG2 cells
  IC50: 8.1 µM
VERO cells
  IC50: 55.6 µM

## Cc1cc(NCCCNc2ccnc3cc(Cl)ccc23)nc(N2CCCCC2)n1 [12b, N-(7-Chloro-quinolin-4-yl)-N′-(6-methyl-2-piperidin-1-yl-pyrimidin-4-yl)-propane-1,3-diamine]
[1]; [4]
  IC50: 0.211 µM
[1]
  P. falciparum (W2 Clone) S.I.: (>284)
LLC-PK-1 cells
  IC50: > 60 µM
[2]; [5]
  IC50: 0.026 µM
[2]
  P. falciparum (D6 Clone) S.I.: (>2300)
HepG2 cells
  IC50: > 60 µM
VERO cells
  IC50: > 60 µM

## Cc1cc(NCCNc2ccnc3cc(Cl)ccc23)nc(N2CCN(C)CC2)n1 [12i, N-(7-Chloro-quinolin-4-yl)-N′-[6-methyl-2-(4-methyl-piperazin-1-yl)-pyrimidin-4-yl]-ethane-1,2-diamine]
[1]; [4]
  IC50: 0.046 µM
[1]
  P. falciparum (W2 Clone) S.I.: (>1304)
LLC-PK-1 cells
  IC50: > 60 µM
parasitemia; 30 mg/kg for 3 days post infection, mice
  parasitemia suppression: 100%
parasitemia; day 28, 30 mg/kg for 3 days post infection, mice
  survival rate: 5/5
parasitemia; mice, 30 mg/kg for 3 days post infection
  apparent toxicity: No apparent toxicity
parasitemia; [6]
  Cure (number of mice without parasitemia till day 28 post-infection): 0/5
  MST (mean survival time): 19.2 days
  Remarks (toxicity): No apparent
  % Parasitemia suppression Day 5: 23.52%
  % Parasitemia suppression Day 7: 35.21%
  Day of Death: 21/28/21/13/13
parasitemia; mice, 3.3 mg/kg × 3 days post-infection, day 28
  Survival (animals that survived day 28/total animals in group): 1/5
parasitemia; [7]
  Cure (number of mice without parasitemia till day 28 post-infection): 0/5
  MST (mean survival time): 21.4 days
  Remarks (toxicity): No apparent
  % Parasitemia suppression Day 5: 97.03%
  % Parasitemia suppression Day 7: 2.03%
  Day of Death: 21/22/22/21/21
parasitemia; mice, 10 mg/kg × 3 days post-infection, day 28
  Survival (animals that survived day 28/total animals in group): 0/5
parasitemia; [8]
  Cure (number of mice without parasitemia till day 28 post-infection): 4/5
  MST (mean survival time): 28 days
  Remarks (toxicity): No apparent
  % Parasitemia suppression Day 5: 100.00%
  % Parasitemia suppression Day 7: 100.00%
  Day of Death: 28/28/28/28/28
parasitemia; mice, 30 mg/kg × 3 days post-infection, day 28
  Survival (animals that survived day 28/total animals in group): 5/5
[2]; CQ-sensitive strain
  activity fold higher than artemisinin: 2 fold
[2]; [5]
  IC50: 0.006 µM
[2]
  P. falciparum (D6 Clone) S.I.: (>10000)
HepG2 cells
  IC50: > 60 µM
VERO cells
  IC50: > 60 µM

## C[C@@H]1CC[C@H]2[C@@H](C)C(=O)O[C@@H]3O[C@@]4(C)CC[C@@H]1[C@]32OO4 [Artemisinine, reference compound]
[1]; [4]
  IC50: 0.012 µM
[1]
  P. falciparum (W2 Clone) S.I.: 5000
[2]; [5]
  IC50: 0.012 µM
[2]
  P. falciparum (D6 Clone) S.I.: 5000

## CCN(CC)CCCC(C)Nc1ccnc2cc(Cl)ccc12 (centres unmarked) [Chloroquine, chloroquine, reference compound]
[1]; W2, read-out: P. falciparum (W2 Clone) IC50 (μM)
  IC50: 0.43 µM
[1]
  P. falciparum (W2 Clone) S.I.: 140
parasitemia; 100 mg/kg for 3 days post infection, standard drug
  parasitemia suppression: 100%
parasitemia; [9]
  Cure (number of mice without parasitemia till day 28 post-infection): 0/5
  MST (mean survival time): 28 days
  % Parasitemia suppression Day 5: 100.00%
  % Parasitemia suppression Day 7: 100.00%
  Day of Death: 28/28/28/28/28
parasitemia; mice, 100 mg/kg × 3 days post-infection, day 28
  Survival (animals that survived day 28/total animals in group): 5/5
[2]; D6, read-out: P. falciparum (D6 Clone) IC50 (μM)
  IC50: 0.048 µM
[2]
  P. falciparum (D6 Clone) S.I.: 1250

## COc1cccc2c1C(=O)c1c(O)c3c(c(O)c1C2=O)C[C@@](O)(C(=O)CO)C[C@@H]3O[C@H]1C[C@H](N)[C@H](O)[C@H](C)O1 [Doxorubicin]
LLC-PK-1 cells
  IC50: 1 µM
HepG2 cells
  IC50: < 1 µM
VERO cells
  IC50: 8.2 µM

## CCN1CCN(c2cc(Cl)nc(NCCCNc3ccnc4cc(Cl)ccc34)n2)CC1 [SM 718]
[3]
  SOLUBILITY: DMSO

## Clc1ccc2c(NCCCNc3ccnc(Cl)n3)ccnc2c1 [SM 719A]
[3]
  SOLUBILITY: DMSO

## Clc1ccc2c(NCCCNc3nccc(Cl)n3)ccnc2c1 [SM 719B]
[3]
  SOLUBILITY: DMSO

## Clc1ccc2c(NCCCNc3ccnc(N4CCCCC4)n3)ccnc2c1 [SM 720]
[3]
  SOLUBILITY: DMSO

## Clc1ccc2c(NCCCNc3ccnc(N4CCOCC4)n3)ccnc2c1 [SM 721]
[3]
  SOLUBILITY: DMSO

## CN1CCN(c2nccc(NCCCNc3ccnc4cc(Cl)ccc34)n2)CC1 [SM 722]
[3]
  SOLUBILITY: DMSO

## CCN1CCN(c2nccc(NCCCNc3ccnc4cc(Cl)ccc34)n2)CC1 [SM 723]
[3]
  SOLUBILITY: DMSO

## Clc1ccc2c(NCCCNc3nccc(N4CCCCC4)n3)ccnc2c1 [SM 724]
[3]
  SOLUBILITY: DMSO

## Clc1ccc2c(NCCCNc3nccc(N4CCOCC4)n3)ccnc2c1 [SM 725]
[3]
  SOLUBILITY: DMSO

## CN1CCN(c2ccnc(NCCCNc3ccnc4cc(Cl)ccc34)n2)CC1 [SM 726]
[3]
  SOLUBILITY: DMSO

## CCN1CCN(c2ccnc(NCCCNc3ccnc4cc(Cl)ccc34)n2)CC1 [SM 727]
[3]
  SOLUBILITY: DMSO

## Clc1ccc2c(NCCNc3ccnc(Cl)n3)ccnc2c1 [SM 728A]
[3]
  SOLUBILITY: DMSO

## Clc1ccc2c(NCCNc3nccc(Cl)n3)ccnc2c1 [SM 728B]
[3]
  SOLUBILITY: DMSO

## Clc1ccc2c(NCCNc3ccnc(N4CCCCC4)n3)ccnc2c1 [SM 730]
[3]
  SOLUBILITY: DMSO

## Clc1ccc2c(NCCNc3ccnc(N4CCOCC4)n3)ccnc2c1 [SM 731]
[3]
  SOLUBILITY: DMSO

## Clc1ccc2c(NCCNc3nccc(N4CCCCC4)n3)ccnc2c1 [SM 732]
[3]
  SOLUBILITY: DMSO

## Clc1ccc2c(NCCNc3nccc(N4CCOCC4)n3)ccnc2c1 [SM 733]
[3]
  SOLUBILITY: DMSO

## CN1CCN(c2ccnc(NCCNc3ccnc4cc(Cl)ccc34)n2)CC1 [SM 734]
[3]
  SOLUBILITY: DMSO
